In general, inhibition refers to the percentage by which the read-out fell short of the control. For orientation: Papp means a coefficient for how fast a substance crosses the barrier.

Activity calls are given as the source filed them. The rule behind the calls is not given here. Where only a bound is given, the exact number is not on record here.

The results in this text go back to ChEMBL document CHEMBL4765481, “Sialyltransferase Inhibitors Suppress Breast Cancer Metastasis” (J Med Chem, 2021).

For data set [1], the system named is MDA-MB-231. As to the kind of experiment: Antitumor activity against luciferase-tagged human MDA-MB-231 cells xenografted in BALB/c mouse assessed as reduction in metastatic nodules in lymph node at 10 mg/kg/3 days, ip measured after 8 weeks by H and E staining based histological analysis. Type of data set: functional, organism-based.
The species entered for a further data set is Rattus norvegicus. As to the kind of experiment: Selectivity ratio of inhibition of rat alpha-2,3-O-ST3GALI at 1000 uM to IC50 for inhibition of rat alpha-2,3-N-ST3GALIII.
Data set [2] has as its system MDA-MB-231. As to the kind of experiment: Antiangiogenesis activity against luciferase-tagged human MDA-MB-231 cells xenografted in BALB/c mouse assessed as reduction in number of vessels surrounding tumor nodules by measuring CD31 expression at 10 mg/kg/3 days, ip measured after 8 weeks by immunostaining. Type of data set: functional, organism-based. (In xenograft studies the graft and the host belong to different species.)

The subject of data set [3] is MDA-MB-231. As to the kind of experiment: Inhibition of Sialyltransferase in human MDA-MB-231 cells assessed as reduction in IkappaB-alpha Ser32 phosphorylation level at 10 to 20 uM incubated for 48 hrs by immunoblot analysis. Type of data set: cell-based. The settings on record: dose 10-20 µM. For orientation: In western blotting, separated proteins are transferred to a membrane and probed.

Data set [4] relates to MDA-MB-231. The experiment in a line: Inhibition of Sialyltransferase in human MDA-MB-231 cells assessed as reduction in integrin isoforms expression (alphaV/alpha5/beta1/beta3/beta4/beta5) at 10 to 20 uM incubated for 48 hrs by immunoblot analysis. Type of data set: cell-based. Particulars: dose 10-20 µM.
Data set [5] relates to MDA-MB-231. As to the kind of experiment: Inhibition of Sialyltransferase in human MDA-MB-231 cells assessed as reduction in FAK Tyr576/577 phosphorylation level at 10 to 20 uM incubated for 48 hrs by immunoblot analysis. Type of data set: cell-based. The settings on record: dose 10-20 µM.
Data set [6] in a line: Apparent permeability at pH 7.4 by PAMPA. (In PAMPA a lipid-coated filter parts donor from acceptor wells.)
Data set [7] relates to MDA-MB-231. As to the kind of experiment: Antitumor activity against luciferase-tagged human MDA-MB-231 cells xenografted in BALB/c mouse assessed as reduction in number of metastatic foci in lungs at 10 mg/kg/3 days, ip measured after 8 weeks by histological analysis. Type of data set: functional, organism-based.
Data set [8] deals with T1, Sialyltransferase ST3Gal-I (Rattus norvegicus) (UniProt Q6H8N0).
T1 sequence (whole entry): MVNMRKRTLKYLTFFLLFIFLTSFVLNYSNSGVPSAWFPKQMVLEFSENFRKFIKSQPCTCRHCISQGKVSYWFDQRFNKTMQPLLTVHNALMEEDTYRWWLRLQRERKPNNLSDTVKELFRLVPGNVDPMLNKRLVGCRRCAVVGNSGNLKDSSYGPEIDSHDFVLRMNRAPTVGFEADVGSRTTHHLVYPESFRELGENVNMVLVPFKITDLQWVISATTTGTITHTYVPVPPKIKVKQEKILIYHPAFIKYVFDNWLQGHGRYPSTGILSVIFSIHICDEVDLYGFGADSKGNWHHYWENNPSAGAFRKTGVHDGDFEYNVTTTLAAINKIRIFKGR
As to the kind of experiment: Inhibition of rat alpha-2,3-O-ST3GALI assessed as reduction in sialylated-product formation at 500 uM using p-nitrophenyl T-antigen and CMP-NeuSAc incubated for 15 mins by reverse-phase HPLC analysis relative to control.

Data set [9] deals with MDA-MB-231. As to the kind of experiment: Inhibition of Sialyltransferase in human MDA-MB-231 cells assessed as reduction in FAK Tyr397 phosphorylation level at 10 to 20 uM incubated for 48 hrs by immunoblot analysis. Particulars: dose 10-20 µM. Type of data set: cell-based.

As for `C[C@H](CCC(=O)OCCOCCOCCN=[N+]=[N-])[C@H]1CC[C@H]2[C@@H]3CC[C@@H]4C[C@H](OC(=O)[C@H](CC(=O)O)Nc5ccc([N+](=O)[O-])c6nonc56)CC[C@]4(C)[C@H]3CC[C@]12C`, the result in the data set on MDA-MB-231 [1], with MDA-MB-231 [2] and with MDA-MB-231 [7] was Active. The Selectivity ratio in the data set filed under Rattus norvegicus is under 575. The inhibition entry with MDA-MB-231 [3] is “Active”. Moreover, the inhibition result was “Dose-dependent effect” in the data set with MDA-MB-231 [4], “Dose-dependent effect” in the data set with MDA-MB-231 [5], 0% in data set [8] and “Dose-dependent effect” in the data set on MDA-MB-231 [9]. Further, the Papp in data set [6] was determined as 3.6 ×10⁻⁶ cm/s.
